Laboratory results from patent US20260125382A1, “COMPOUNDS FOR INHIBITING OR DEGRADING CDK2 AND/OR CDK9 AND MEDICINAL USE THEREOF” (KOREA RESEARCH INSTITUTE OF CHEMICAL TECHNOLOGY, priority 2022, published 2026).

What was measured:
CDK2 = target: T1, CDK2 (Homo sapiens, UniProt P24941); assay: CDK protein degradation activity (Western blotting), CDK2; assay type: cell-based; conditions: MDA-MB-231 cells, 16 hours, Western blot
T1 construct: endogenous in cells; host or cells: MDA-MB-231
Procedure, shortened: (§1)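 Seed MDA-MB-231 cells; next day add compound to 100 nM, 1 μM or 10 μM final, or DMSO. After 16 h, harvest and lyse in Triton X-100 buffer, run SDS-PAGE, probe for CDK2, CDK9 and tubulin.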

CDK9 = target: T2, CDK9 (Homo sapiens, UniProt P50750); assay: CDK protein degradation activity (Western blotting), CDK9; assay type: cell-based; conditions: MDA-MB-231 cells, 16 hours, Western blot
T2 construct: endogenous in cells; host or cells: MDA-MB-231
Procedure, shortened: as §1

T2 sequence (P50750 whole entry): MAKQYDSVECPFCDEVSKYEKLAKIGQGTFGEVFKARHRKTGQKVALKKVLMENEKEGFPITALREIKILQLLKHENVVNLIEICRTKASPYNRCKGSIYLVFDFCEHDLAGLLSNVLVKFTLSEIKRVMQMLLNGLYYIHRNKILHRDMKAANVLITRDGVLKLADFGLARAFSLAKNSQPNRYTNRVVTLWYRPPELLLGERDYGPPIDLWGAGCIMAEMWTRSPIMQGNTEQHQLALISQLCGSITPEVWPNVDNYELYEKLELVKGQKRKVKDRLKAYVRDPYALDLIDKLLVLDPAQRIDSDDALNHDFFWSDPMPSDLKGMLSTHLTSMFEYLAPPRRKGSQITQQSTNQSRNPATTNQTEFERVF

SMILES	Enzyme degradation CDK2 (% remaining) @ 0.1 μM (CDK2)	Enzyme degradation CDK2 (% remaining) @ 1 μM (CDK2)	Enzyme degradation CDK2 (% remaining) @ 10 μM (CDK2)	Enzyme degradation CDK9 (% remaining) @ 0.1 μM (CDK9)	Enzyme degradation CDK9 (% remaining) @ 1 μM (CDK9)	Enzyme degradation CDK9 (% remaining) @ 10 μM (CDK9)
Cc1cccc(C(=O)NC2CC(n3cnc4c(NCCC5CCN(CC6CCN(c7ccc8c(c7)C(=O)N([C@H]7CCC(=O)NC7=O)C8=O)CC6)CC5)ncnc43)C2)n1 (stereo partly drawn) [Compound 308, N-((1s,3s)-3-(6-((2-(1-((1-(2-(2,6-dioxopiperidin-3-yl)-1,3-dioxoisoindolin-5-yl)piperidin-4-yl)methyl)piperidin-4-yl)ethyl)amino)-9H-purin-9-yl)cyclobutyl)-6-methylpicolinamide]	40%	30%	30%	20%	0%	20%
Cc1cccc(C(=O)NC2CC(n3cnc4c(NCCC5CCN(CC6CCN(C(=O)C7CN(c8ccc9c(c8)C(=O)N([C@H]8CCC(=O)NC8=O)C9=O)C7)CC6)CC5)ncnc43)C2)n1 (stereo partly drawn) [Compound 309, N-((1s,3s)-3-(6-((2-(1-((1-(1-(2-(2,6-dioxopiperidin-3-yl)-1,3-dioxoisoindolin-5-yl)azetidin-3-carbonyl)piperidin-4-yl)methyl)piperidin-4-yl)ethyl)amino)-9H-purin-9-yl)cyclobutyl)-6-methylpicolinamide]	90%	80%	100%	0/0/0%	0/0/0%	0/0/0%
O=C1CC[C@H](N2C(=O)c3cccc(NCC(=O)N4CCN(CC5CCN(c6ccc(Nc7ncnc8c7ncn8[C@H]7C[C@@H](NC(=O)c8c(Cl)cccc8Cl)C7)cc6)CC5)CC4)c3C2=O)C(=O)N1 [Compound 311, 2,6-dichloro-N-((1s,3s)-3-(6-((4-(4-((4-((2-(2,6-dioxopiperidin-3-yl)-1,3-dioxoisoindolin-4-yl)glycyl)piperazin-1-yl)methyl)piperidin-1-yl)phenyl)amino)-9H-purin-9-yl)cyclobutyl)benzamide]	10%	20%	20%	10%	0%	0%
O=C1CC[C@H](N2C(=O)c3ccc(NCC(=O)N4CCN(CC5CCN(c6ccc(Nc7ncnc8c7ncn8[C@H]7C[C@@H](NC(=O)c8c(Cl)cccc8Cl)C7)cc6)CC5)CC4)cc3C2=O)C(=O)N1 [Compound 312, 2,6-dichloro-N-((1s,3s)-3-(6-((4-(4-((4-((2-(2,6-dioxopiperidin-3-yl)-1,3-dioxoisoindolin-5-yl)glycyl)piperazin-1-yl)methyl)piperidin-1-yl)phenyl)amino)-9H-purin-9-yl)cyclobutyl)benzamide]	10/10/10%	10/10/10%	10/10/10%	0/0/0%	0/0/0%	0/0/0%
O=C1CC[C@H](n2nnc3ccc(N4CCC5(CC4)CC(N4CCN(c6ccc(Nc7ncnc8c7ncn8[C@H]7C[C@@H](NC(=O)Cc8ccccc8)C7)cc6)CC4)C5)cc3c2=O)C(=O)N1 [Compound 314, N-((1s,3s)-3-(6-((4-(4-(7-(3-(2,6-dioxopiperidin-3-yl)-4-oxo-3,4-dihydrobenzo[d][1,2,3]triazin-6-yl)-7-azaspiro[3.5]nonan-2-yl)piperazin-1-yl)phenyl)amino)-9H-purin-9-yl)cyclobutyl)-2-phenylacetamide]	10/10/10%	10/10/10%	10/10/10%	10%	0%	0%
O=C1CC[C@H](N2C(=O)c3ccc(N4CCC5(CC4)CC(N4CCN(c6ccc(Nc7ncnc8c7ncn8C7CC(NC(=O)c8c(Cl)cccc8Cl)C7)cc6)CC4)C5)cc3C2=O)C(=O)N1 (stereo partly drawn) [Compound 315, 2,6-dichloro-N-((1s,3s)-3-(6-((4-(4-(7-(2-(2,6-dioxopiperidin-3-yl)-1,3-dioxoisoindolin-5-yl)-7-azaspiro[3.5]nonan-2-yl)piperazin-1-yl)phenyl)amino)-9H-purin-9-yl)cyclobutyl)benzamide]	10%	20%	30%	0/0/0%	0/0/0%	0/0/0%
O=C1CCC(N2C(=O)c3cc(F)c(N4CCC5(CC4)CC(N4CCN(c6ccc(Nc7ncnc8c7ncn8[C@H]7C[C@@H](NC(=O)c8c(Cl)cccc8Cl)C7)cc6)CC4)C5)cc3C2=O)C(=O)N1 (stereo partly drawn) [Compound 316, 2,6-dichloro-N-((1s,3s)-3-(6-((4-(4-(7-(2-(2,6-dioxopiperidin-3-yl)-6-fluoro-1,3-dioxoisoindolin-5-yl)-7-azaspiro[3.5]nonan-2-yl)piperazin-1-yl)phenyl)amino)-9H-purin-9-yl)cyclobutyl)benzamide]	30%	30%	50%	0/0/0%	0/0/0%	0/0/0%
O=C1CC[C@H](n2nnc3ccc(N4CCC5(CC4)CC(N4CCN(c6ccc(Nc7ncnc8c7ncn8[C@H]7C[C@@H](NC(=O)c8c(Cl)cccc8Cl)C7)cc6)CC4)C5)cc3c2=O)C(=O)N1 [Compound 317, 2,6-dichloro-N-((1s,3s)-3-(6-((4-(4-(7-(3-(2,6-dioxopiperidin-3-yl)-4-oxo-3,4-dihydrobenzo[d][1,2,3]triazin-6-yl)-7-azaspiro[3.5]nonan-2-yl)piperazin-1-yl)phenyl)amino)-9H-purin-9-yl)cyclobutyl)benzamide]	10/10/10%	10/10/10%	10/10/10%	0/0/0%	0/0/0%	0/0/0%
O=C1CC[C@H](N2C(=O)c3ccc(NCC(=O)N4CCC5(CC4)CC(N4CCN(c6ccc(Nc7ncnc8c7ncn8C7CC(NC(=O)c8c(Cl)cccc8Cl)C7)cc6)CC4)C5)cc3C2=O)C(=O)N1 (stereo partly drawn) [Compound 318, 2,6-dichloro-N-((1s,3s)-3-(6-((4-(4-(7-((2-(2,6-dioxopiperidin-3-yl)-1,3-dioxoisoindolin-5-yl)glycyl)-7-azaspiro[3.5]nonan-2-yl)piperazin-1-yl)phenyl)amino)-9H-purin-9-yl)cyclobutyl)benzamide]	20%	20%	40%	0/0/0%	0/0/0%	0/0/0%
